Test results: PubChem BioAssay AID1845210 (Molecular Pharmacology Branch, DTP, NCI, 2023)
Values joined by “and” are separate entries in the source; they are usually repeats but may differ in a detail not shown here. Equal values may be shown once.

Tested on: NCI-H226 complex tumor spheroids, viability
Assay: Anticancer human tumor NCI-H226 cell line growth inhibition;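 also: spheroids exposed to compound for 7 days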;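 as to viability, T/C: 100% = DMSO vehicle control viability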
Conditions: for viability, T/C: stronger effect = lower value
Source text: Multicellular complex tumor spheroid response to DNA repair inhibitors in combination with DNA-damaging drugs
This study explores the anticancer activities of DNA-damaging drugs and inhibitors of DNA damage repair, both as single agents and in combinations. Complex tumor spheroids comprised of malignant cells, endothelial cells and mesenchymal stem cells served as an in vitro model for human solid tumors. This model system incorporates physiologically relevant features and patient-derived or established malignant cell lines with clinically relevant genetic alterations from many tumor types. Twenty-six patient-derived or established malignant cell lines were evaluated representing sarcoma, melanoma, small cell lung cancer (SCLC), non-small cell lung cancer (NSCLC), as well as bladder, ovarian and pancreatic cancers. The concentration ranges selected for each drug and investigational agent were based upon clinically achievable concentrations if the clinical Cmax of the agent was known.
Compounds. The drugs and compounds olaparib (NSC753686), talazoparib (NSC767125), berzosertib (NSC777718), elimusertib (NSC800525), nedisertib (NSC802822), VX-984 (NSC792969), AZD-1390 (NSC803789), temozolomide (NSC362856), topotecan (NSC609699), trabectedin (NSC813783), staurosporine (NSC755774), and gemcitabine (NSC613327) were obtained from the National Cancer Institute (NCI) Developmental Therapeutics Program Chemical Repository. The FDA-approved anticancer drug set is available from the Developmental Therapeutics Program at https://dtp.cancer.gov/organization/dscb/obtaining/available_plates.htm. […] The stock solutions were prepared in dimethyl sulfoxide (DMSO, Sigma-Aldrich, St. Louis, MO, cat. D2650) at 400-fold the tested concentration and stored at -70 degrees C. Prior to their use, the stock solutions were diluted in fresh medium and the final DMSO concentration in the assay was 0.25% (v/v). All drugs and investigational agents were tested over a range starting from a high concentration at or near the clinical Cmax and decreasing in half-log increments. If the clinical Cmax for an agent had not been determined, the highest concentration tested was 10 microM.
Cell Lines. The patient-derived cancer cell (PDC) lines: 156681-154-R-J1-PDC, 283228-195-R-J1-PDC, 287954-098-R-J1-PDC, 292921-168-R-J2-PDC, 349418-098-R-PDC, 425362-245-T-J1-PDC, 556581-035-R-J1-PDC, and BL0293-F563-PDC were received from the NCI Patient-Derived Models Repository (PDMR, https://pdmr.cancer.gov). The established cell lines HS-SY-2 (RRID:CVCL_8719), MPNST, and SYO-1 (RRID:CVCL_7146) were obtained from the Sloan Kettering Institute. The alveolar soft parts sarcoma cell line ASPS-1 (RRID:CVCL_S738) was established at the NCI and grown from internal seed stocks. The following established cell lines were purchased from the American Type Culture Collection (ATCC, Manassas, VA): G-401 (ATCC, cat. CRL-1441, RRID:CVCL_0270), SW982 (ATCC, cat. HTB-93, RRID:CVCL_1734), VA-ES-BJ (ATCC, cat. CRL-2138, RRID:CVCL_1785), NCI-H719 (ATCC, cat. CRL-5837, RRID:CVCL_1582), NCI-H196 (ATCC, cat. CRL-5823, RRID:CVCL_1509), NCI-H841 (ATCC, cat. CRL-5845, RRID:CVCL_1595), NCI-H1618 (ATCC, cat. CRL-5879, RRID:CVCL_1480), NCI-H1876 (ATCC, cat. CRL-5902, RRID:CVCL_1503), DMS 114 (ATCC, cat. CRL-2066; RRID:CVCL_1174), NCI-H211 (ATCC, cat. CRL-5824; RRID:CVCL_1529), and SW 1271 (ATCC, cat. CRL-2177, RRID:CVCL_1716). The small cell lung cancer cell line COR-L88 was purchased from Sigma-Aldrich (cat. 92031917-1VL, RRID:CVCL_1141). The non-small cell lung cancer cell lines NCI-H226 (RRID:CVCL_1544) and NCI-H322M (RRID:CVCL_1557) were established at the NCI and grown from internal seed stocks. Pooled donor human umbilical vein endothelial cells (HUVEC, Lonza, cat. CC-2519) and human mesenchymal stem cells (hMSC, Lonza, cat. PT-2501) were purchased from Lonza (Walkersville, MD).
Cell Culture. All cells were maintained in an incubator at 37 degrees C and 5% CO2 with 95% humidity. […]

[1] = compound alone, run of 12/12/2019

SMILES | viability, T/C (compound 0.0316 µM) | viability, T/C (compound 0.1 µM) | viability, T/C (compound 0.316 µM) | viability, T/C (compound 1 µM) | viability, T/C (compound 3.16 µM) | IC50 (curve of compound) | viability, T/C (compound 10 µM) | viability, T/C (compound 0.003 µM) | viability, T/C (compound 0.03 µM) | viability, T/C (compound 0.0949 µM) | viability, T/C (compound 0.3 µM) | IC50 (compound alone, run of 12/02/2019) | IC50 [1] | viability, T/C (compound 0.00949 µM) | viability, T/C (compound 0.949 µM) | viability, T/C (compound 3 µM) | viability, T/C (compound 30 pM)
CC(C)n1c(=O)n(C)c2cnc3cc(F)c(-c4ccc(OCCCN5CCCCC5)nc4)cc3c21 | 99.6% and 101% and 93.1% | 103% and 96.9% and 104% | 103% and 112% and 102% | 111% and 98% and 84.2% | 107% and 97.5% and 102% | > 10000 nM and 5690 nM and 7570 nM |  |  |  |  |  |  |  |  |  |  | 
CC1COCCN1c1cc(-c2ccnn2C)c2ccnc(-c3ccn[nH]3)c2n1 (configuration not stated) | 93.9% and 94.7% and 94.8% | 102% and 91% and 82.2% | 86% and 74% and 68.6% | 60.4% and 53.3% and 47.3% | 52.5% and 44.6% and 45.4% | 2740 nM and 1500 nM and 1130 nM | 42.9% and 39.2% and 35.2% |  |  |  |  |  |  |  |  |  | 
CC[C@@]1(O)C(=O)OCc2c1cc1n(c2=O)Cc2cc3c(CN(C)C)c(O)ccc3nc2-1 |  |  |  |  |  |  |  | 94.5% [middle of 10 runs] | 86% [middle of 10 runs] | 86.1% [middle of 10 runs] | 66.8% [middle of 10 runs] | > 300 nM | > 300 nM |  |  |  | 
CNCc1ccc(-c2cc(-c3nc(-c4ccc(S(=O)(=O)C(C)C)cc4)cnc3N)on2)cc1 |  |  |  |  |  | 678 nM and 1800 nM and 1710 nM |  |  | 126% and 123% and 90.1% | 132% and 112% and 106% | 124% and 127% and 118% |  |  | 109% and 97.8% and 83.3% | 20% and 109% (2×) | 0.4% and 2.72% and 0.64% | 
COc1cc(C)[nH]c(=O)c1CN1CCc2c(Cl)cc(C(OC)C3COC3)c(Cl)c2C1=O (configuration not stated) | 90.2% and 107% and 114% | 113% and 115% and 102% | 109% and 125% and 108% | 110% and 115% and 102% | 114% and 134% and 116% | > 10000 nM | 116% and 120% and 108% |  |  |  |  |  |  |  |  |  | 
COc1cc2c(cc1O)CCNC21CSC2c3c(OC(C)=O)c(C)c4c(c3C(COC1=O)N1C(O)C3Cc5cc(C)c(OC)c(O)c5C(C21)N3C)OCO4 (configuration not stated) |  |  |  |  |  |  |  | 1.23% [middle of 10 runs] |  |  |  |  | 1.76 nM [middle of 10 runs] |  |  |  | 104% [middle of 10 runs]
COc1ccc([C@@H](O)c2cc(-c3ncnc4cc(N5CCOCC5)ccc34)c(F)cc2Cl)nn1 | 96.6% and 91% and 98.2% | 93.2% and 99.9% and 94.4% | 89.3% and 96.3% and 93.6% | 80.3% and 71.2% and 82.1% | 54.6% and 52.2% and 55.1% | 4630 nM and 3040 nM and 4290 nM | 39.5% and 35.6% (2×) |  |  |  |  |  |  |  |  |  | 
Cc1cc(C)c(CNC(=O)c2cc(-c3ccc(CN4CCOCC4)cc3)cc3c2cnn3C2CCCC2)c(=O)[nH]1 | 100% (2×) and 94.5% | 102% and 112% and 103% | 99% and 107% and 112% | 83.4% and 110% and 97.2% | 91% and 115% and 98.1% | > 10000 nM | 91.5% and 118% and 100% |  |  |  |  |  |  |  |  |  | 
Cc1sc2c(c1C)C(c1ccc(Cl)cc1)=NC(CC(=O)Nc1ccc(O)cc1)c1nnc(C)n1-2 (configuration not stated) |  |  |  |  |  | 592 nM and > 3000 nM |  |  | 72.7% and 73.6% and 78.2% | 79.5% and 64.3% and 96.1% | 57.7% and 57.8% and 77.4% |  |  | 80.2% and 99.2% and 85.2% | 47.1% and 50.4% and 73.6% | 38.5% and 49.4% and 63.2% | 
